# Test results reported in patent US9079863B2, “Crystalline forms for 5-amino-2,3-dihydrophthalazine-1,4-dione sodium salt, pharmaceutical preparations containing the same and method for the production of said forms” (METRIOPHARM AG, priority 2010, dated 2015).
# Structures can show the parent of a compound that is named as a salt. Where two headings read alike, the source gives them in different places.
# How the values were obtained:
# [1] = for Disintegration temperature: 30-500° C. in synthetic air (4 N2: 1 O2), sodium salt
# Protocol: (Table 5). The solid phase transformation of the dihydrate according to U.S. Pat. No. 6,483,326 B1 was measured by means of the simultaneous thermogravimetry-differential thermal analysis with a Linseis L81-077 coupled with mass spectroscopy measurement with a Netzsch STA 449 C thermobalance, with MS and FTIR coupling at 30-300° C. under helium. The disintegration temperatures of forms I-II were determined with the same device at 30-500° C. in synthetic air (4 N2: 1 O2). The data were analyzed with the factory-set software Proteus.
# [2] = physchem; settings: saturated solution
# Protocol: Further, the solubility of the crystalline forms in a saturated solution was determined.
# [3] = system: isolated mouse bone marrow macrophages
# Protocol: For this purpose, isolated mouse bone marrow macrophages were first treated with form II in concentrations of 2, 20 or 200 μg/mL and stimulated 1 h after treatment with 100 ng/mL or 10 ng/mL LPS. The supernatants were collected 24 h later, and the concentration of TNF-alpha and IL-6 was measured. Not stimulated macrophages, not stimulated macrophages treated with 200 μg/mL form II and LPS-stimulated macrophages (10 or 100 ng/mL LPS) were used as controls.
# [4] = system: stimulated murine macrophages; settings: 1 μg/mL LPS with 100 μg/mL
# Protocol: These were measured in the combination of 2 μg/mL active ingredient with macrophages stimulated with 100 ng/mL LPS as well as in the group of the macrophages stimulated with 10 ng/mL in the active ingredient concentration with 20 μg/mL.
# [5] = not infected mice; for Weight development/increase MW: over two days
# Protocol: (§1) In a mouse model of the Gram-positive sepsis (infection with S. pyogenes) the therapeutic usability of the crystal forms I and II of the 5-amino-2,3-dihydrophthalazine-1,4-dione sodium salt was tested. The administration of active ingredient was made parenterally 6 hours after the infection occurred. A second administration of active ingredient was made 24 hours after the first application. The test was completed 48 hours after the infection. For both forms (substance groups) three different doses were used. The mice obtained 2, 20 or 200 μg each of form I or form II per animal and application.
# (§2) The individual treatment groups comprised 5 animals each, and for the not infected controls two repetitions and for the infected controls and that groups that contained form II four repetitions were made, so that in total 180 animals were in the test.
# It is known that the toxicity of substances in an animal test with growing-up mice or rate can influence the weight development.
# [6] = system: S. pyogenes; settings: infected mice, sodium salt; for Weight development/increase Total MW: complete test time 48 h, survivors
# Protocol: as §1, §2
# In the sepsis model described in Example 3, the influence of crystal forms I and II of the 5-amino-2,3-dihydrophthalazine-1,4-dione sodium salt on the weight development of mice infected with S. pyogenes was tested. The development of the body weight during an acute infection may supply important predictive information.
# [7] = system: S. pyogenes; settings: 48 hours after the infection
# Protocol: as §1, §2
# In the sepsis model described in Example 3, the influence the crystal forms II and I of the 5-amino-2,3-dihydrophthalazine-1,4-dione sodium, salt on the probability of survival of the mice infected with S. pyogenes was tested.
# [8] = system: S. pyogenes; settings: for Germ load (CFU) Blood MW / Germ load (CFU) Liver MW: 48 hours after the infection, sodium salt
# Protocol: as §1, §2
# In the sepsis model described in Example 3, the influence of crystal forms II and I of the 5-amino-2,3-dihydrophthalazine-1,4-dione sodium salt on the germ load of the mice infected with S. pyogenes in blood and liver was tested. The test was completed 48 hours after the infection, and the germ load (CFU) existing at this time in blood and liver was determined (see Table).
# [9] = healthy mice
# Protocol: as §1
# Blood taking occurred after 48 hours at the end of the second application day.
# [10] = system: S. pyogenes; settings: 48 hours after the infection; remark: listed apart in the source
# Protocol: as §1
# [11] = healthy mice, end of the second application day
# Text: When administering form I and form II to healthy mice, it was investigated, whether and which influence the application has on certain liver enzymes, in particular the transaminases GOT (AST) and GPT (ALT). Blood taking occurred at the end of the second application day.
# [12] = 0.25 g in 10 mL H2O VE, stirring 500 rpm, 25° C., first minutes after addition; sodium salt
# Protocol: The complete dissolution of 0.25 g form I or form II, respectively, in 10 mL H2O VE was achieved under stirring (500 rpm) at 25° C.
# [13] = dose 2 μg, LPS 10 ng/mL, supernatant 24 h
# [14] = dose 2 μg, LPS 100 ng/mL, supernatant 24 h
# [15] = dose 20 μg, LPS 10 ng/mL, supernatant 24 h
# [16] = dose 20 μg, LPS 100 ng/mL, supernatant 24 h
# [17] = dose 200 μg, LPS 10 ng/mL, supernatant 24 h
# [18] = dose 200 μg, LPS 100 ng/mL, supernatant 24 h
# [19] = dose 200 μg, not stimulated (no LPS)
compound,measurement,setting,value
"Nc1cccc2c(=O)[nH][nH]c(=O)c12 [Form II, 5-amino-2,3-dihydrophthalazine-1,4-dione sodium salt]",Disintegration temperature,[1]; listed as form II,385 °C
same,Disintegration temperature,[1],385 °C ± 10 °C
same,Time for which the crystalline form is stable,[1]; room temperature (25° C.) and 40° C.,at least two
same,Solubility,"[2]; in water at room temperature, sodium salt",252 mg/mL
same,Solubility in comparison,[2],more soluble than form I
same,Change of TNF-alpha,"[3]; 10 ng/mL LPS, 200 μg/mL",significant reduction
same,Change of TNF-alpha concentration,"[3]; 100 ng/mL LPS, all active ingredient concentrations",significant reduction
same,Change of IL-6 values,[3]; 2 μg/mL with 100 ng/mL LPS,significant reductions
same,Change of IL-6 values,[3]; 20 μg/mL with 10 ng/mL LPS,significant reductions
same,IL-6 MW,[3]; [13],3.93 ng/mL
same,TNF-alpha MW,[3]; [13],8.38 ng/mL
same,IL-6 MW,[3]; [14],2.67 ng/mL
same,TNF-alpha MW,[3]; [14],7.40 ng/mL
same,IL-6 MW,[3]; [15],1.61 ng/mL
same,TNF-alpha MW,[3]; [15],9.80 ng/mL
same,IL-6 MW,[3]; [16],4.28 ng/mL
same,TNF-alpha MW,[3]; [16],9.06 ng/mL
same,IL-6 MW,[3]; [17],3.42 ng/mL
same,TNF-alpha MW,[3]; [17],6.76 ng/mL
same,IL-6 MW,[3]; [18],4.00 ng/mL
same,TNF-alpha MW,[3]; [18],7.69 ng/mL
same,IL-6 MW,[3]; [19],0.00 ng/mL
same,TNF-alpha MW,[3]; [19],0.00 ng/mL
same,Immunostimulating effect on not LPS-induced macrophages,[3]; not LPS-induced,could not be shown
same,Effect on IL-6 values,[4],immunodepressive effect
same,Toxicity judged from weight development,[5],do not have any toxicity or at most a very small one
same,Weight development/increase MW,"[5]; 2 μg per animal and application, parenteral, sodium salt",-0.14 g
same,Weight development/increase MW,"[5]; 20 μg per animal and application, parenteral, sodium salt",1.43 g
same,Weight development/increase MW,"[5]; 200 μg per animal and application, parenteral, sodium salt",0.50 g
same,Weight development/increase MW,[5]; all doses (total),0.59 g
same,Weight development/increase Total MW,[6]; 2 μg,-2.02 g
same,Weight development/increase Day 1 MW,[6]; 2 μg,-0.57 g
same,Weight development/increase Total MW,[6]; 20 μg,-1.69 g
same,Weight development/increase Day 1 MW,[6]; 20 μg,-0.55 g
same,Weight development/increase Total MW,[6]; 200 μg,-1.86 g
same,Weight development/increase Day 1 MW,[6]; 200 μg,-0.72 g
same,Weight development/increase Total MW,[6]; all doses (total),-1.86 g
same,Weight development/increase Day 1 MW,[6]; all doses (total),-0.62 g
same,Share of surviving mice,"[7]; 2 μg, sodium salt",90%
same,Share of surviving mice,[7]; 20 μg,80%
same,Share of surviving mice,"[7]; 200 μg, sodium salt",70%
same,Survival compared to the controls,[7],increase of the share of surviving animals
same,Share of surviving mice,[7]; all doses (total),80%
same,Germ load (CFU) Blood MW,[8]; 2 μg,5.96 log/mL
same,Germ load (CFU) Liver MW,[8]; 2 μg,6.13 log/g
same,Germ load (CFU) Blood MW,[8]; 20 μg,5.88 log/mL
same,Germ load (CFU) Liver MW,[8]; 20 μg,6.79 log/g
same,Germ load (CFU) Blood MW,[8]; 200 μg,5.54 log/mL
same,Germ load (CFU) Liver MW,[8]; 200 μg,6.14 log/g
same,Germ load (CFU) Blood MW,[8]; all doses (total),5.80 log/mL
same,Germ load (CFU) Liver MW,[8]; all doses (total),6.36 log/g
same,Germ count in the blood compared to the controls,[8]; highest dose,tendentious germ count reduction
same,TNF-alpha MW,"[9]; 2 μg, blood after 48 hours, sodium salt",0.0 pg/mL
same,TNF-alpha MW,"[9]; 20 μg, blood after 48 hours, sodium salt",0.0 pg/mL
same,TNF-alpha MW,"[9]; 200 μg, blood after 48 hours, sodium salt",16.94 pg/mL
same,TNF-alpha MW,"[9]; all doses (total), blood after 48 hours, sodium salt",5.65 pg/mL
same,IL-6 increase,[9]; blood after 48 hours,neither in the substance groups nor in the control groups increases could be found
same,TNF-alpha increase,"[9]; compared to the other groups, sodium salt",do not cause a relevant increase
same,IL-6 in infected mice,[10]; not confirmed in all repetitions,in part distinct tendencies of an IL-6 reduction
same,Liver enzyme values GOT (AST) and GPT (ALT),"[10]; infected mice, some repetitions only",tendencies to reduce the liver enzyme values
same,Transaminases GOT (AST) and GPT (ALT),[11],Distinct differences between the groups could not be found
same,Initial dissolution rate,[12],higher than that of form I
